# Results reported in ChEMBL document CHEMBL1147720, “Discovery and initial SAR of inhibitors of interleukin-1 receptor-associated kinase-4” (Bioorg Med Chem Lett, 2006).
# Target: T1, Interleukin-1 receptor-associated kinase 4 (Homo sapiens) (UniProt Q9NWZ3)
# T1 sequence (whole entry): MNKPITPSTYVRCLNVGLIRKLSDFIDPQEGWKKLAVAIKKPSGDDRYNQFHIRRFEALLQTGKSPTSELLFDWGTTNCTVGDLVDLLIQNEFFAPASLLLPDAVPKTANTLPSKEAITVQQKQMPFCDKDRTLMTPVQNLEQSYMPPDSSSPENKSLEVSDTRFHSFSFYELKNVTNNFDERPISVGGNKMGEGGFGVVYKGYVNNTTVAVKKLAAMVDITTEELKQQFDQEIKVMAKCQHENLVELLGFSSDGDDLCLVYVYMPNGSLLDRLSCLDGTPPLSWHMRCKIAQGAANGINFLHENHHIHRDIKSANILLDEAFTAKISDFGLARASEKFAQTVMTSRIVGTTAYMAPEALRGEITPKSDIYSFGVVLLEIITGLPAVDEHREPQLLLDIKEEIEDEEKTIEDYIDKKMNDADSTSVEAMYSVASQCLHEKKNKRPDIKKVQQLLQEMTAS
# Assay: Inhibition of IRAK4 at 30 uM
# Details: not given
row,SMILES,inhibition
1,CCCCn1c(NC(=O)c2ccc([N+](=O)[O-])cc2)nc2ccccc21,8%
2,O=C(Nc1nc2cc(Cl)c(Cl)cc2[nH]1)c1cccc([N+](=O)[O-])c1,10%
3,O=C(Nc1nc2ccccc2[nH]1)c1ccccc1,11%
4,O=[N+]([O-])c1cccc(S(=O)(=O)Nc2nc3ccccc3[nH]2)c1,45%
5,O=C(Nc1nc2c(F)c(F)ccc2[nH]1)c1cccc([N+](=O)[O-])c1,24%

# Now from value to compound:
row,inhibition,SMILES
1,11%,O=C(Nc1nc2ccccc2s1)c1cccc([N+](=O)[O-])c1
2,38%,O=C(O)Cn1c(NC(=O)c2cccc([N+](=O)[O-])c2)nc2ccccc21
3,39%,O=C(Nc1nc2ccc[nH]c-2n1)c1cccc([N+](=O)[O-])c1
4,29%,O=C(Nc1nc2cc([N+](=O)[O-])ccc2[nH]1)c1cccc([N+](=O)[O-])c1
5,8%,O=[N+]([O-])c1cccc(CNc2nc3ccccc3[nH]2)c1
6,15%,O=C(Nc1cccc([N+](=O)[O-])c1)Nc1nc2ccccc2[nH]1
7,25%,O=C(Nc1nc2c([N+](=O)[O-])cccc2[nH]1)c1cccc([N+](=O)[O-])c1

# Target: T2, Interleukin-1 receptor-associated kinase 4 (Homo sapiens, UniProt Q9NWZ3)
# T2 sequence (Q9NWZ3 whole entry): T1 sequence (whole entry)
# Assay: Inhibition of IRAK4
# Details: not given
row,SMILES,IC50
1,Cc1cc2nc(NC(=O)c3cccc([N+](=O)[O-])c3)[nH]c2cc1C,8 µM
2,CCCS(=O)(=O)c1ccc2[nH]c(NC(=O)c3cccc([N+](=O)[O-])c3)nc2c1,4 µM
3,CCCCn1c(NC(=O)c2cccc(Cl)c2)nc2ccccc21,30 µM
4,Cc1ccc(C(=O)Nc2nc3ccccc3[nH]2)cc1[N+](=O)[O-],12 µM
5,N#Cc1cccc(C(=O)Nc2nc3ccccc3[nH]2)c1,13.6 µM
6,CCOC(=O)Cn1c(NC(=O)c2cccc([N+](=O)[O-])c2)nc2ccccc21,0.4 µM
7,CCCCn1c(NC(=O)c2ccc(Cl)c(Cl)c2)nc2ccccc21,3 µM
8,CN(C(=O)c1cccc([N+](=O)[O-])c1)c1nc2ccccc2n1C1CCOC1=O (stereo unspecified),> 30 µM
9,COC(=O)c1ccc2[nH]c(NC(=O)c3cccc([N+](=O)[O-])c3)nc2c1,25 µM
10,O=C(Nc1nc2ccccc2n1CCN1CCOCC1)c1cccc([N+](=O)[O-])c1,0.2 µM
11,O=C(Nc1nc2cc(F)c(F)cc2[nH]1)c1cccc([N+](=O)[O-])c1,30 µM
12,C=CCN(C(=O)c1cccc([N+](=O)[O-])c1)c1nc2ccccc2n1CC=C,> 30 µM
13,CCCCn1c(NC(=O)c2ccc(OC)cc2)nc2ccccc21,6.5 µM
14,O=C(Nc1nc2ccccc2[nH]1)c1ccc(F)c([N+](=O)[O-])c1,6.5 µM

# The next lines start with the values.
row,IC50,SMILES
1,20 µM,CCCCCn1c(NC(=O)c2cccc([N+](=O)[O-])c2)nc2ccccc21
2,6 µM,O=C(Nc1nc2ccc(Cl)cc2[nH]1)c1cccc([N+](=O)[O-])c1
3,4 µM,CN(C)CCCn1c(NC(=O)c2cccc([N+](=O)[O-])c2)nc2ccccc21
4,4 µM,O=C(Nc1nc2ccccc2[nH]1)c1cccc([N+](=O)[O-])c1
5,1 µM,COCCn1c(NC(=O)c2cccc([N+](=O)[O-])c2)nc2ccccc21
6,2 µM,CCn1c(NC(=O)c2cccc([N+](=O)[O-])c2)nc2ccccc21
7,0.4 µM,O=C(Nc1nc2ccccc2n1CCO)c1cccc([N+](=O)[O-])c1
8,0.5 µM,O=C(Nc1nc2ccccc2n1CC1CCCO1)c1cccc([N+](=O)[O-])c1 (stereo unspecified)
9,2 µM,O=C(Nc1nc2ccccc2n1CCC1CCC1)c1cccc([N+](=O)[O-])c1
10,30 µM,O=C(Nc1nc2cc[nH]cc-2n1)c1cccc([N+](=O)[O-])c1
11,4 µM,O=C(O)CCn1c(NC(=O)c2cccc([N+](=O)[O-])c2)nc2ccccc21
12,2 µM,CCCCn1c(NC(=O)c2cccc([N+](=O)[O-])c2)nc2ccccc21
13,1.5 µM,COc1ccc2nc(NC(=O)c3cccc([N+](=O)[O-])c3)[nH]c2c1
14,2 µM,CCOCCn1c(NC(=O)c2cccc([N+](=O)[O-])c2)nc2ccccc21
15,0.8 µM,Cc1ccc2nc(NC(=O)c3cccc([N+](=O)[O-])c3)[nH]c2c1
16,0.55 µM,O=C(Nc1nc2ccccc2n1C1CCOC1=O)c1cccc([N+](=O)[O-])c1 (stereo unspecified)
17,1 µM,C=CCn1c(NC(=O)c2cccc([N+](=O)[O-])c2)nc2ccccc21
18,1 µM,CC(C)n1c(NC(=O)c2cccc([N+](=O)[O-])c2)nc2ccccc21
19,3 µM,CCN(CC)CCn1c(NC(=O)c2cccc([N+](=O)[O-])c2)nc2ccccc21
20,4.5 µM,O=C(Nc1nc2ccc(F)cc2[nH]1)c1cccc([N+](=O)[O-])c1
21,1 µM,CCOC(=O)CCn1c(NC(=O)c2cccc([N+](=O)[O-])c2)nc2ccccc21

# Target: Interleukin-1 receptor-associated kinase 1 (Homo sapiens, UniProt P51617)
# Sequence (P51617 whole entry): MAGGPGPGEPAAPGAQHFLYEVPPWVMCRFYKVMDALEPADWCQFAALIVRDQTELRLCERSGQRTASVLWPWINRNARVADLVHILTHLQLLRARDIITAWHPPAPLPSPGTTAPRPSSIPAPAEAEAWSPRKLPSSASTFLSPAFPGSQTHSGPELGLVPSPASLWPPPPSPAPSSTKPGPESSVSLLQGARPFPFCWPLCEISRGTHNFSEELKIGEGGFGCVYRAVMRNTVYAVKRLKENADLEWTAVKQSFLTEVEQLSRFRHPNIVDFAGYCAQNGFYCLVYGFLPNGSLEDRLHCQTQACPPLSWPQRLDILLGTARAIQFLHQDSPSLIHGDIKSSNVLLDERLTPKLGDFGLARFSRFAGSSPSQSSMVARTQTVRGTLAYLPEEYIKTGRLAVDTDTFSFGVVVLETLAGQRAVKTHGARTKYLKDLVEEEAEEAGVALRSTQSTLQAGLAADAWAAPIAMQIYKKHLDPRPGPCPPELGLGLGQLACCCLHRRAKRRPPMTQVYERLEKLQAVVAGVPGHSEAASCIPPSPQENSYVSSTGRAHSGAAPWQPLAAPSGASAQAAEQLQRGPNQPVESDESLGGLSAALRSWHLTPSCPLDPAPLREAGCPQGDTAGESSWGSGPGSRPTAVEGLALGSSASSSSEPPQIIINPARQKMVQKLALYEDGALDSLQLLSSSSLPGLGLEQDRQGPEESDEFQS
# Assay: Inhibition of IRAK1
# Details: not given
row,SMILES,IC50
1,CCOC(=O)Cn1c(NC(=O)c2cccc([N+](=O)[O-])c2)nc2ccccc21,0.75 µM
2,O=C(Nc1nc2ccccc2n1CCN1CCOCC1)c1cccc([N+](=O)[O-])c1,0.3 µM

# System: HeLa
# Assay: Antiproliferative activity against human HeLa cell line after 72 hrs
# Format: functional
# Details: read-out: ED50 (the source's name)
row,SMILES,EC50
1,CCOC(=O)Cn1c(NC(=O)c2cccc([N+](=O)[O-])c2)nc2ccccc21,> 30 µM
2,O=C(Nc1nc2ccccc2n1CCN1CCOCC1)c1cccc([N+](=O)[O-])c1,> 30 µM
